In patent US11584961B2, “Biomarkers for inflammatory skin disease” (Incyte Corporation, priority 2018, dated 2023):
Several values for one entry are separate records, joined by “and”; a condition that tells them apart may be missing. Identical values can stand only once. Entries after “also recorded” stand apart in the source; their conditions may differ.

Legend:
[1] = tested on: mild to moderate plaque psoriasis; experiment: Study of topical ruxolitinib (INCB018424) cream in plaque psoriasis, PASI response at day 28 (Example 1); assay type: in vivo, human; conditions: for Classification: therapeutic response at day 28, individual subjects; for % Change in PASI at Day 28: individual subjects
[2] = tested on: mild to moderate plaque psoriasis; experiment: Double-blind, randomized, vehicle controlled dose ranging study of topical ruxolitinib (INCB018424) in plaque psoriasis, PASI response at day 28 and day 84 (Example 4); assay type: in vivo, human; conditions: for Classification: therapeutic response at day 84, individual subjects; for % Change in PASI at Day 28 / % Change in PASI at Day 84: individual subjects

Compound: N#CC[C@H](C1CCCC1)n1cc(-c2ncnc3[nH]ccc23)cn1 [INCB018424, (3R)-3-cyclopentyl-3-[4-(7H-pyrrolo[2,3-d]pyrimidin-4-yl)-1H-pyrazol-1-yl]propanenitrile]
- Classification ([1]; 1.0% BID): Responder
- Classification ([1]; 1.5% BID): Responder; also recorded: Non-Responder
- Classification ([1]; 1.5% QD): Non-Responder; also recorded: Responder
- % Change in PASI at Day 28 ([1]; topical cream 1.0% BID): −60.0% and −66.7% (2×)
- % Change in PASI at Day 28 ([1]; topical cream 1.5% BID): −85.7% and −40.0% (2×) and −33.3% and −50.0% and −60.0%
- % Change in PASI at Day 28 ([1]; topical cream 1.5% QD): −33.3% and −80.0% and −50.0%
- Classification ([2]; 0.5% QD): Responder (individuals were classified as responders if they had >=50% improvement in psoriasis area severity index on day 84); also recorded: Non-Responder
- Classification ([2]; 1.0% QD): Non-Responder; also recorded: Responder (individuals were classified as responders if they had >=50% improvement in psoriasis area severity index on day 84)
- Classification ([2]; 1.5% QD): Non-Responder; also recorded: Responder (individuals were classified as responders if they had >=50% improvement in psoriasis area severity index on day 84)
- % Change in PASI at Day 28 ([2]; topical cream 0.5% QD): −16.7% (2×) and −23.5% and −51.7% and −12.5% and −27.8%
- % Change in PASI at Day 84 ([2]; topical cream 0.5% QD): −75% and −50% and −23.5% and −66.7% and −12.5% and −45.9%
- % Change in PASI at Day 28 ([2]; topical cream 1.0% QD): −15.3% and 0% and 83.3%
- % Change in PASI at Day 84 ([2]; topical cream 1.0% QD): 0% and −66.7% and 77.8%
- % Change in PASI at Day 28 ([2]; topical cream 1.5% QD): −12.6% and −4.7% and −28% and −50% and −32%
- % Change in PASI at Day 84 ([2]; topical cream 1.5% QD): −12.6% and −42.5% and −30% and −84.8% and −64%
